Source: paper PMC7162861, “Synthesis, cytotoxicity, pharmacokinetic profile, binding with DNA and BSA of new imidazo[1,2-a]pyrazine-benzo[d]imidazol-5-yl hybrids” (Scientific Reports, 2020)

Key:
SW-620 = assay: NCI cytotoxicity screen, Colon Cancer panel; type: cell-based, human; conditions: Homo sapiens, single dose 10 µM, negative = lethal, read-out: Percent growth inhibition
Experimental: (§1) Cytotoxicity was performed at National Cancer Institute (NCI), Bethesda, USA as per their protocols.

HCC-2998 = assay: NCI cytotoxicity screen, Colon Cancer panel; type: cell-based, human; conditions: Homo sapiens; HCC-2998; single dose 10 µM; negative = lethal; read-out: Percent growth inhibition
Experimental: as §1

KM12 = assay: NCI cytotoxicity screen, Colon Cancer panel; type: cell-based, human; conditions: Homo sapiens, single dose 10 µM, negative = lethal, read-out: Percent growth inhibition
Experimental: as §1

UO-31 = assay: NCI cytotoxicity screen, Renal Cancer panel; type: cell-based; conditions: Homo sapiens, single dose 10 µM, negative = lethal, read-out: Percent growth inhibition
Experimental: as §1

RXF 393 = assay: NCI cytotoxicity screen, Renal Cancer panel; type: cell-based; conditions: Homo sapiens, single dose 10 µM, negative = lethal, read-out: Percent growth inhibition
Experimental: as §1

ACHN = assay: NCI cytotoxicity screen, Renal Cancer panel; type: cell-based; conditions: Homo sapiens, single dose 10 µM, negative = lethal, read-out: Percent growth inhibition
Experimental: as §1

SN12C = assay: NCI cytotoxicity screen, Renal Cancer panel; type: cell-based; conditions: Homo sapiens, single dose 10 µM, negative = lethal, read-out: Percent growth inhibition
Experimental: as §1

A498 = assay: NCI cytotoxicity screen, Renal Cancer panel; type: cell-based; conditions: Homo sapiens, single dose 10 µM, negative = lethal, read-out: Percent growth inhibition
Experimental: as §1

786-0 = assay: NCI cytotoxicity screen, Renal Cancer panel; type: cell-based, human; conditions: Homo sapiens, single dose 10 µM, negative = lethal, read-out: Percent growth inhibition
Experimental: as §1

TK-10 = assay: NCI cytotoxicity screen, Renal Cancer panel; type: cell-based, human; conditions: Homo sapiens, single dose 10 µM, negative = lethal, read-out: Percent growth inhibition
Experimental: as §1

OVCAR-3 = assay: NCI cytotoxicity screen, Ovarian Cancer panel; type: cell-based, human; conditions: Homo sapiens; OVCAR-3; single dose 10 µM; negative = lethal; read-out: Percent growth inhibition
Experimental: as §1

NCI-H322M = assay: NCI cytotoxicity screen, Non-Small Cell Lung Cancer panel; type: cell-based, human; conditions: Homo sapiens, single dose 10 µM, negative = lethal, read-out: Percent growth inhibition
Experimental: as §1

NCI-522 = assay: as above; type: cell-based, human; conditions: Homo sapiens; NCI-522; single dose 10 µM; negative = lethal; read-out: Percent growth inhibition
Experimental: as §1

NCI-H23 = assay: as above; type: cell-based, human; conditions: Homo sapiens, single dose 10 µM, negative = lethal, read-out: Percent growth inhibition
Experimental: as §1

NCI-H226 = assay: as above; type: cell-based, human; conditions: Homo sapiens, single dose 10 µM, negative = lethal, read-out: Percent growth inhibition
Experimental: as §1

M14 = assay: NCI cytotoxicity screen, Melanoma panel; type: cell-based, human; conditions: Homo sapiens, single dose 10 µM, negative = lethal, read-out: Percent growth inhibition
Experimental: as §1

LOX IMVI = assay: NCI cytotoxicity screen, Melanoma panel; type: cell-based, human; conditions: Homo sapiens, single dose 10 µM, negative = lethal, read-out: Percent growth inhibition
Experimental: as §1

K-562 = assay: NCI cytotoxicity screen, Leukemia panel; type: cell-based; conditions: Homo sapiens, K562; K-562; single dose 10 µM; negative = lethal; read-out: Percent growth inhibition
Experimental: as §1

HL-60(TB) = assay: NCI cytotoxicity screen, Leukemia panel; type: cell-based; conditions: Homo sapiens, HL-60, HL-60(TB); single dose 10 µM; negative = lethal; read-out: Percent growth inhibition
Experimental: as §1

MOLT-4 = assay: NCI cytotoxicity screen, Leukemia panel; type: cell-based; conditions: Homo sapiens, MOLT-4, MOLT-4; single dose 10 µM; negative = lethal; read-out: Percent growth inhibition
Experimental: as §1

CCRF-CEM = assay: NCI cytotoxicity screen, Leukemia panel; type: cell-based; conditions: Homo sapiens, single dose 10 µM, negative = lethal, read-out: Percent growth inhibition
Experimental: as §1

RPMI-8226 = assay: NCI cytotoxicity screen, Leukemia panel; type: cell-based; conditions: Homo sapiens; RPMI-8226; single dose 10 µM; negative = lethal; read-out: Percent growth inhibition
Experimental: as §1

SR = assay: NCI cytotoxicity screen, Leukemia panel; type: cell-based; conditions: Homo sapiens, single dose 10 µM, negative = lethal, read-out: Percent growth inhibition
Experimental: as §1

MCF7 = assay: NCI cytotoxicity screen, Breast Cancer panel; type: cell-based; conditions: Homo sapiens, single dose 10 µM, negative = lethal, read-out: Percent growth inhibition
Experimental: as §1

BT-549 = assay: NCI cytotoxicity screen, Breast Cancer panel; type: cell-based; conditions: Homo sapiens, single dose 10 µM, negative = lethal, read-out: Percent growth inhibition
Experimental: as §1

HS 578 T = assay: NCI cytotoxicity screen, Breast Cancer panel; type: cell-based; conditions: Homo sapiens; HS 578T; single dose 10 µM; negative = lethal; read-out: Percent growth inhibition
Experimental: as §1

MDA-MB-231/ATCC = assay: NCI cytotoxicity screen, Breast Cancer panel; type: cell-based; conditions: Homo sapiens, MDA-MB-231, read-out: Percent growth inhibition
Experimental: as §1

T-47D = assay: NCI cytotoxicity screen, Breast Cancer panel; type: cell-based; conditions: Homo sapiens, T47D, T-47D; single dose 10 µM; negative = lethal; read-out: Percent growth inhibition
Experimental: as §1

MDA-MB-468 = assay: NCI cytotoxicity screen, Breast Cancer panel; type: cell-based; conditions: Homo sapiens, single dose 10 µM, negative = lethal, read-out: Percent growth inhibition
Experimental: as §1

A549/ATCC = assay: NCI cytotoxicity screen, Non-Small Cell Lung Cancer panel; type: cell-based; conditions: Homo sapiens; A549/ATCC; single dose 10 µM; negative = lethal; read-out: Percent growth inhibition
Experimental: as §1

EXVX = assay: as above; type: cell-based; conditions: Homo sapiens; EXVX; single dose 10 µM; negative = lethal; read-out: Percent growth inhibition
Experimental: as §1

NCI-H460 = assay: as above; type: cell-based; conditions: Homo sapiens, single dose 10 µM, negative = lethal, read-out: Percent growth inhibition
Experimental: as §1

HOP-62 = assay: as above; type: cell-based; conditions: Homo sapiens, single dose 10 µM, negative = lethal, read-out: Percent growth inhibition
Experimental: as §1

HOP-92 = assay: as above; type: cell-based; conditions: Homo sapiens, single dose 10 µM, negative = lethal, read-out: Percent growth inhibition
Experimental: as §1

SK-MEL-5 = assay: NCI cytotoxicity screen, Melanoma panel; type: cell-based; conditions: Homo sapiens, single dose 10 µM, negative = lethal, read-out: Percent growth inhibition
Experimental: as §1

SK-MEL-2 = assay: NCI cytotoxicity screen, Melanoma panel; type: cell-based; conditions: Homo sapiens, single dose 10 µM, negative = lethal, read-out: Percent growth inhibition
Experimental: as §1

MALME-3M = assay: NCI cytotoxicity screen, Melanoma panel; type: cell-based; conditions: Homo sapiens; MALME-3M; single dose 10 µM; negative = lethal; read-out: Percent growth inhibition
Experimental: as §1

MDA-MB-435 = assay: NCI cytotoxicity screen, Melanoma panel; type: cell-based; conditions: Homo sapiens, MDA-MB-435, read-out: Percent growth inhibition
Experimental: as §1

SK-MEL-28 = assay: NCI cytotoxicity screen, Melanoma panel; type: cell-based; conditions: Homo sapiens, single dose 10 µM, negative = lethal, read-out: Percent growth inhibition
Experimental: as §1

UACC-257 = assay: NCI cytotoxicity screen, Melanoma panel; type: cell-based; conditions: Homo sapiens, single dose 10 µM, negative = lethal, read-out: Percent growth inhibition
Experimental: as §1

SNB-75 = assay: NCI cytotoxicity screen, CNS Cancer panel; type: cell-based; conditions: Homo sapiens, single dose 10 µM, negative = lethal, read-out: Percent growth inhibition
Experimental: as §1

SF-539 = assay: NCI cytotoxicity screen, CNS Cancer panel; type: cell-based; conditions: Homo sapiens, single dose 10 µM, negative = lethal, read-out: Percent growth inhibition
Experimental: as §1

U251 = assay: NCI cytotoxicity screen, CNS Cancer panel; type: cell-based; conditions: Homo sapiens, U-251; U251; single dose 10 µM; negative = lethal; read-out: Percent growth inhibition
Experimental: as §1

SF-268 = assay: NCI cytotoxicity screen, CNS Cancer panel; type: cell-based; conditions: Homo sapiens, single dose 10 µM, negative = lethal, read-out: Percent growth inhibition
Experimental: as §1

SNB-19 = assay: NCI cytotoxicity screen, CNS Cancer panel; type: cell-based; conditions: Homo sapiens; SNB-19; single dose 10 µM; negative = lethal; read-out: Percent growth inhibition
Experimental: as §1

SF-295 = assay: NCI cytotoxicity screen, CNS Cancer panel; type: cell-based; conditions: Homo sapiens, single dose 10 µM, negative = lethal, read-out: Percent growth inhibition
Experimental: as §1

OVCAR-8 = assay: NCI cytotoxicity screen, Ovarian Cancer panel; type: cell-based; conditions: Homo sapiens, single dose 10 µM, negative = lethal, read-out: Percent growth inhibition
Experimental: as §1

NCI/ADR-RES = assay: NCI cytotoxicity screen, Ovarian Cancer panel; type: cell-based; conditions: Homo sapiens, single dose 10 µM, negative = lethal, read-out: Percent growth inhibition
Experimental: as §1

OVCAR-4 = assay: NCI cytotoxicity screen, Ovarian Cancer panel; type: cell-based; conditions: Homo sapiens; OVCAR-4; single dose 10 µM; negative = lethal; read-out: Percent growth inhibition
Experimental: as §1

SK-OV-3 = assay: NCI cytotoxicity screen, Ovarian Cancer panel; type: cell-based; conditions: Homo sapiens, single dose 10 µM, negative = lethal, read-out: Percent growth inhibition
Experimental: as §1

IGROV1 = assay: NCI cytotoxicity screen, Ovarian Cancer panel; type: cell-based; conditions: Homo sapiens, IGROV-1, single dose 10 µM, negative = lethal, read-out: Percent growth inhibition
Experimental: as §1

OVCAR-5 = assay: NCI cytotoxicity screen, Ovarian Cancer panel; type: cell-based; conditions: Homo sapiens, single dose 10 µM, negative = lethal, read-out: Percent growth inhibition
Experimental: as §1

COLO 205 = assay: NCI cytotoxicity screen, Colon Cancer panel; type: cell-based; conditions: Homo sapiens, single dose 10 µM, negative = lethal, read-out: Percent growth inhibition
Experimental: as §1

HCT-15 = assay: NCI cytotoxicity screen, Colon Cancer panel; type: cell-based; conditions: Homo sapiens, single dose 10 µM, negative = lethal, read-out: Percent growth inhibition
Experimental: as §1

HCT-116 = assay: NCI cytotoxicity screen, Colon Cancer panel; type: cell-based; conditions: Homo sapiens, single dose 10 µM, negative = lethal, read-out: Percent growth inhibition
Experimental: as §1

HT29 = assay: NCI cytotoxicity screen, Colon Cancer panel; type: cell-based; conditions: Homo sapiens, HT-29; HT29; single dose 10 µM; negative = lethal; read-out: Percent growth inhibition
Experimental: as §1

PC-3 = assay: NCI cytotoxicity screen, Prostate Cancer panel; type: cell-based, human; conditions: Homo sapiens, single dose 10 µM, negative = lethal, read-out: Percent growth inhibition
Experimental: as §1

DU-145 = assay: NCI cytotoxicity screen, Prostate Cancer panel; type: cell-based, human; conditions: Homo sapiens, single dose 10 µM, negative = lethal, read-out: Percent growth inhibition
Experimental: as §1

## Brc1cn2ccnc2c(-c2ccc3c(c2)ncn3C2CCCCC2)n1 [Compound 8, 6-bromo-8-(1-cyclohexyl-1H-benzo[d]imidazol-5-yl)imidazo[1,2-a]pyrazine]
SW-620
  inhibition at 10 µM: < 1%
HCC-2998
  inhibition at 10 µM: 3.13%
KM12
  inhibition at 10 µM: < 1%
UO-31
  inhibition at 10 µM: 40.1%
RXF 393
  inhibition at 10 µM: < 1%
ACHN
  inhibition at 10 µM: < 1%
SN12C
  inhibition at 10 µM: < 1%
A498
  inhibition at 10 µM: 3.51%
786-0
  inhibition at 10 µM: 1.3%
TK-10
  inhibition at 10 µM: < 1%
OVCAR-3
  inhibition at 10 µM: < 1%
NCI-H322M
  inhibition at 10 µM: 10.9%
NCI-522
  inhibition at 10 µM: 15.2%
NCI-H23
  inhibition at 10 µM: 8.76%
NCI-H226
  inhibition at 10 µM: 3.73%
M14
  inhibition at 10 µM: < 1%
LOX IMVI
  inhibition at 10 µM: 9.14%
K-562
  inhibition at 10 µM: 17.4%
HL-60(TB)
  inhibition at 10 µM: 10.5%
MOLT-4
  inhibition at 10 µM: 17.4%
CCRF-CEM
  inhibition at 10 µM: < 1%
RPMI-8226
  inhibition at 10 µM: < 1%
SR
  inhibition at 10 µM: 20.6%
MCF7
  inhibition at 10 µM: 37.6%
BT-549
  inhibition at 10 µM: 6.38%
HS 578 T
  inhibition at 10 µM: 2.68%
MDA-MB-231/ATCC
  inhibition at 10 µM: 3.12%
T-47D
  inhibition at 10 µM: 25.3%
MDA-MB-468
  inhibition at 10 µM: 6.27%
A549/ATCC
  inhibition at 10 µM: 4.8%
EXVX
  inhibition at 10 µM: 10.3%
NCI-H460
  inhibition at 10 µM: 3.26%
HOP-62
  inhibition at 10 µM: 13%
HOP-92
  inhibition at 10 µM: 21.9%
SK-MEL-5
  inhibition at 10 µM: 8.35%
SK-MEL-2
  inhibition at 10 µM: 0.53%
MALME-3M
  inhibition at 10 µM: < 1%
MDA-MB-435
  inhibition at 10 µM: < 1%
SK-MEL-28
  inhibition at 10 µM: < 1%
UACC-257
  inhibition at 10 µM: < 1%
SNB-75
  inhibition at 10 µM: 16.4%
SF-539
  inhibition at 10 µM: 6.65%
U251
  inhibition at 10 µM: < 1%
SF-268
  inhibition at 10 µM: 5.8%
SNB-19
  inhibition at 10 µM: 10.5%
SF-295
  inhibition at 10 µM: 7.58%
OVCAR-8
  inhibition at 10 µM: 3.55%
NCI/ADR-RES
  inhibition at 10 µM: 5.47%
OVCAR-4
  inhibition at 10 µM: 9.25%
SK-OV-3
  inhibition at 10 µM: 6.59%
IGROV1
  inhibition at 10 µM: 8.45%
OVCAR-5
  inhibition at 10 µM: < 1%
COLO 205
  inhibition at 10 µM: < 1%
HCT-15
  inhibition at 10 µM: 4.25%
HCT-116
  inhibition at 10 µM: 6.06%
HT29
  inhibition at 10 µM: 4.48%
PC-3
  inhibition at 10 µM: 10.3%
DU-145
  inhibition at 10 µM: < 1%
